This is an account of results in patent US5916915A, “Water-in-stable L-ascorbic acid derivative and a method for preparation thereof, and a skin-whitening cosmetic composition containing the same” (priority 1997, dated 1999).

Series [1] can be described thus: Stability of AsA-APPA in pH 7 buffer at 50° C. (residual ratio by UV absorbance). Format: physicochemical. The conditions noted are these: about; neutral aqueous solution, 50° C. As to the method: L-Ascorbic acid and AsA-APPA produced in Preparation Ex. 2 were dissolved in buffer solutions of pH 7 to concentrations of 50 μM, respectively, and then maintained in a thermostat of 50° C. At constant intervals, UV absorbances were measured at 259 nm for AsA-APPA and at 266 nm for L-ascorbic acid, to evaluate the stabilities of the test samples as residual ratio(%).

Series [2] in a line: Stability in an aqueous base: precipitation and discoloration. Format: physicochemical. Also on record: key: -: No precipitation; +: Slight precipitation; ++: Some precipitation; +++: Severe precipitation. The conditions noted are these: 3 g in 100 ml water. As to the method: Each 3 g of compounds of Preparation Ex. 3 and Ex. 6 and L-ascorbic acid 2-phosphate magnesium was dissolved in 100 ml of distilled water, and then maintained in a thermostat of 50° C. for 30 minutes.
Colorless or pale-yellow
+++ Severe precipitation

Take `O=C1O[C@H]([C@@H](O)CO)C(O)=C1O` [L-ascorbic acid]: the time to decomposition in series [1] was not above 1 h.

As to `NCCCOP(=O)(O)OC1=C(O)[C@@H]([C@@H](O)CO)OC1=O` [Prep. Ex. 3], the Precipitation entry in series [2] (day 1), in series [2] (day 3), in series [2] (day 5), in series [2] (day 7), in series [2] (day 9) and in series [2] (day 11) was “-” each time. Further, the Precipitation result in series [2] (day 13), in series [2] (day 15) and in series [2] (day 30) was “-” each time.

`O=C1O[C@H]([C@@H](O)CO)C(O)=C1OP(=O)([O-])[O-].[Mg+2]` [compound 1, L-ascorbic acid 2-phosphate magnesium, reference compound]: the Precipitation entry is “-” in series [2] (day 1); “+” in series [2] (day 3); “+” in series [2] (day 5); “++” in series [2] (day 7); “++” in series [2] (day 9); “++” in series [2] (day 11). The Precipitation result in series [2] (day 13), in series [2] (day 15) and in series [2] (day 30) was “+++” throughout.
